This note sets out measurements from US7700647B2, “Fluorinated bis (phthalic anhydride) and method for producing the same” (priority 2003, dated 2010).

Holding throughout (format): physicochemical
Data set [1] can be described thus: Specific surface area by Brunauer-Emmerit-Teller (BET) method. Particulars: Model NOVA 2000. The procedure:
Each specific surface area of 4,4′-[(2,3,5,6-tetrafluoro-1,4-phenylene)bis(oxy)]bis(3,5,6-trifluorophthalic anhydride) obtained in the above-mentioned Preparation Example 4 and Comparative Preparation Example 2 was measured.
The specific surface area was measured using a Brunauer-Emmerit-Teller (BET) method (Model NOVA 2000 manufactured by Quantachrome Corporation).

The nature of data set [2]: Absorbance of acetone solution measured with a spectrophotometer (coloration). Particulars: wavelength 360 nm; 0.5 g dissolved in acetone to 10 g total. The protocol:
0.5 g of 4,4′-[(2,3,5,6-tetrafluoro-1,4-phenylene)-bis(oxy)]bis(3,5,6-trifluorophthalic anhydride) obtained in the above-mentioned Preparation Example 4 was dissolved in acetone and adjusted so as to give 10 g of the total amount of the mixture. The absorbance in the visible region of this solution was measured with a spectrophotometer (UV-3100 manufactured by Shimadzu Corporation). The absorbance of the same compound prepared in the above-mentioned Comparative Preparation Example 2 was similarly measured.

Data set [3] in a line: Time to become a homogeneous solution when stirred with diamine in N,N-dimethylacetamide. Particulars: stirred at room temperature. The protocol:
Into a 100 milliliter—three necked flask were charged 14.51 g (24.92 mmol) of 4,4′-[(2,3,5,6-tetrafluoro-1,4-phenylene)bis(oxy)]bis(3,5,6-trifluorophthalic anhydride) obtained in Preparation Example 4, 4.48 g (24.92 mmol) of 1,3-diamino-2,4,5,6-tetrafluorobenzene and 31 g of N,N-dimethylacetamide. As this mixture was stirred at room temperature in an atmosphere of nitrogen, it took about 30 minutes before it became a homogeneous solution. By leaving standing further for 4 days, a light-yellow polyamic acid solution having a high viscosity was obtained.
Raw materials were charged into a three necked flask in the same manner as that of the above-mentioned Preparation Example 5 except for using a substance obtained in the above Comparative Preparation Example 2 instead of a substance obtained in the above Preparation Example 4 as the 4,4′-[(2,3,5,6-tetrafluoro-1,4-phenylene)bis(oxy)]bis(3,5,6-trifluorophthalic anhydride). As this mixture was stirred at room temperature as with the above-mentioned Preparation Example 5, it took about 1 hour before it became a homogeneous solution. By leaving standing further for 4 days, a yellow polyamic acid solution was obtained, but its viscosity was low. When its weight-average molecular weight was measured in the same manner as that of the above-mentioned Preparation Example 5, it was 6.04×10^4.

`O=C1OC(=O)c2c(F)c(Oc3c(F)c(F)c(Oc4c(F)c(F)c5c(c4F)C(=O)OC5=O)c(F)c3F)c(F)c(F)c21` [Comparative Preparation Example 2, 4,4′-[(2,3,5,6-tetrafluoro-1,4-phenylene)bis(oxy)]bis(3,5,6-trifluorophthalic anhydride)] returned a Specific surface area in data set [1] of 2.869 m^2/g. The molecule further registered a Molar absorption coefficient in data set [2] of 0.672 L/mol/cm. Moreover, the “Time before mixture became a homogeneous solution” value in data set [3] (same manner as Preparation Example 5, N,N-dimethylacetamide) is listed as “about 1 hour”.

Take `O=C1OC(=O)c2c(F)c(Oc3c(F)c(F)c(Oc4c(F)c(F)c5c(c4F)C(=O)OC5=O)c(F)c3F)c(F)c(F)c21` [Preparation Example 4, 4,4′-[(2,3,5,6-tetrafluoro-1,4-phenylene)bis(oxy)]bis(3,5,6-trifluorophthalic anhydride)]: the Specific surface area in data set [1] was found to be 4.403 m^2/g. This molecule also returned a Molar absorption coefficient in data set [2] of 0.258 L/mol/cm. The “Time before mixture became a homogeneous solution” value in data set [3] (14.51 g with 4.48 g 1,3-diamino-2,4,5,6-tetrafluorobenzene in 31 g N,N-dimethylacetamide, nitrogen) was “about 30 minutes”.
